Test systems include HOP-92 NSCLC; RPMI-8226 leukemia; CCRF-CEM leukemia; LOX IMVI melanoma; IGROV1 ovarian; HS 578T breast; EKVX NSCLC; U251 CNS; COLO 205 colon; A498 renal.
What all share (assay): inhibition of tumour cell growth, NCI panel, 48 h

Molecules are shown by their SMILES. Where “and” joins values, the source holds several entries; their conditions need not be identical. Equal values may be shown once.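 48-hour exposure; five concentrations; linearly interpolated endpoints. GI50 = concentration required for 50% inhibition of growth. TGI is the concentration that stops growth completely.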

Turning to `COc1ccc(Cn2c(Cl)c(/C=C3/C(=O)Nc4ccccc43)c3cc(OC)c(C)cc32)cc1`, the GI50 in the experiment with HOP-92 NSCLC is 53.8 µM; in the experiment on RPMI-8226 leukemia, 4.26 µM; in the experiment on CCRF-CEM leukemia it was 4.94 µM; with LOX IMVI melanoma it was 14.3 µM; in the experiment on IGROV1 ovarian, 13.3 µM; with HS 578T breast, 2.32 µM. Besides, the GI50 in the experiment on EKVX NSCLC was 45.5 µM; with U251 CNS, 6.05 µM; in the experiment on COLO 205 colon, 2.33 µM. Further, the TGI is greater than 100 µM in the experiment with HOP-92 NSCLC; 79 µM in the experiment with RPMI-8226 leukemia; greater than 100 µM in the experiment with CCRF-CEM leukemia; greater than 100 µM in the experiment on LOX IMVI melanoma; greater than 100 µM with IGROV1 ovarian; greater than 100 µM in the experiment with HS 578T breast. Besides, the TGI in the experiment with EKVX NSCLC is greater than 100 µM; in the experiment with U251 CNS it was greater than 100 µM; in the experiment on COLO 205 colon it was 5.52 µM.

Consider `FCc1ncc(-c2ccc(C(F)(F)F)cc2)c(NC2CCCCCC2)n1`, for which the GI50 in the experiment with HOP-92 NSCLC was 5.29 µM; with RPMI-8226 leukemia it was greater than 10 µM; in the experiment with CCRF-CEM leukemia, greater than 10 µM; in the experiment with LOX IMVI melanoma it was greater than 10 µM; in the experiment on A498 renal, greater than 10 µM; with IGROV1 ovarian it was greater than 10 µM. Also, the GI50 in the experiment on HS 578T breast, in the experiment with U251 CNS and with COLO 205 colon was greater than 10 µM throughout. The TGI in the experiment with HOP-92 NSCLC, in the experiment with RPMI-8226 leukemia, in the experiment with CCRF-CEM leukemia, in the experiment with LOX IMVI melanoma, with A498 renal and in the experiment on IGROV1 ovarian was greater than 10 µM in each case. Besides, the TGI in the experiment with HS 578T breast, in the experiment with U251 CNS and with COLO 205 colon was greater than 10 µM in each case.

For the compound `O=C1NC2(CN3CCC2CC3)C(=O)N1CN(Cc1ccccc1)c1ccccc1` (configuration not stated), the TGI in the experiment on HOP-92 NSCLC, with RPMI-8226 leukemia, in the experiment on LOX IMVI melanoma, in the experiment on A498 renal, with IGROV1 ovarian and in the experiment with HS 578T breast was greater than 100 µM throughout. Besides, the TGI with EKVX NSCLC, with U251 CNS and in the experiment with COLO 205 colon was greater than 100 µM each time.

In the case of `CCC(c1cccc(O)c1)C(CC)c1cccc(O)c1` (configuration not stated), the GI50 is 2.05 µM in the experiment with RPMI-8226 leukemia; 4.07 µM in the experiment with LOX IMVI melanoma; 4.35 µM in the experiment on A498 renal; 10.8 µM in the experiment on IGROV1 ovarian; 1.96 µM in the experiment on HS 578T breast; 4.54 µM with EKVX NSCLC. The figures for the GI50 in the experiment with U251 CNS and in the experiment on COLO 205 colon were 3.63 µM and 2.05 µM, respectively. The TGI came to 7.73 µM in the experiment on RPMI-8226 leukemia; 16.9 µM in the experiment with LOX IMVI melanoma; 16.7 µM with A498 renal; 25.3 µM in the experiment with IGROV1 ovarian; 9.77 µM with HS 578T breast; 35.7 µM in the experiment on EKVX NSCLC. Also, the TGI is 14.7 µM in the experiment with U251 CNS and 5.41 µM in the experiment with COLO 205 colon.

As to `COc1cc(Cn2c(-c3nonc3N)nc3ccccc32)ccc1C`, the GI50 with HOP-92 NSCLC was 0.566 µM; in the experiment on RPMI-8226 leukemia, 0.493 µM; with CCRF-CEM leukemia, 0.403 µM; in the experiment with LOX IMVI melanoma, 0.649 µM; in the experiment with A498 renal it was 0.142 µM; in the experiment with IGROV1 ovarian, 1.22 µM. Further, the figures for the GI50 in the experiment on HS 578T breast, in the experiment with U251 CNS and with COLO 205 colon were 0.326 µM, 0.501 µM and 0.337 µM, respectively. Also, the TGI in the experiment on HOP-92 NSCLC was 30 µM; in the experiment with RPMI-8226 leukemia, greater than 100 µM; with CCRF-CEM leukemia, greater than 100 µM; with LOX IMVI melanoma, greater than 100 µM; in the experiment on A498 renal, 1.66 µM; with IGROV1 ovarian it was greater than 61.6 µM. The TGI in the experiment on HS 578T breast is 24.4 µM; in the experiment on U251 CNS, 15.6 µM; in the experiment on COLO 205 colon, 1.39 µM.

For the compound `Cc1ccc(SC(=O)N2C(=S)NC(=NC3CCCCC3)C23CCCCC3)cc1`, the TGI in the experiment on HOP-92 NSCLC, in the experiment on RPMI-8226 leukemia, in the experiment on CCRF-CEM leukemia, in the experiment on LOX IMVI melanoma, in the experiment on IGROV1 ovarian and in the experiment with HS 578T breast was greater than 100 µM throughout. Further, the TGI with EKVX NSCLC, in the experiment with U251 CNS and with COLO 205 colon was greater than 100 µM each time.

Regarding `Cc1c2cc[n+](C)cc2c(C)c2c1[nH]c1ccc(O)c(OCC(F)(F)F)c12`, the TGI stood at 17.4 µM in the experiment with HOP-92 NSCLC; 16.8 µM in the experiment with RPMI-8226 leukemia; 28.4 µM with CCRF-CEM leukemia; 46.5 µM in the experiment on LOX IMVI melanoma; 32 µM in the experiment on A498 renal; 23.1 µM with IGROV1 ovarian. Besides, the TGI is 20.1 µM in the experiment with EKVX NSCLC, 7 µM with U251 CNS and 12.6 µM in the experiment with COLO 205 colon.

Regarding `C=C=C(C(=O)OC)S(=O)c1ccc([N+](=O)[O-])cc1[N+](=O)[O-]` (configuration not stated), the TGI in the experiment with HOP-92 NSCLC was 66.7 µM; with RPMI-8226 leukemia it was 55.1 µM; with CCRF-CEM leukemia it was 32.5 µM; in the experiment with LOX IMVI melanoma it was 46.4 µM; in the experiment on A498 renal, greater than 100 µM; with IGROV1 ovarian, 97.5 µM. In addition, the TGI was greater than 100 µM in the experiment with EKVX NSCLC, 62.7 µM in the experiment with U251 CNS and 52.7 µM in the experiment on COLO 205 colon.

As to `c1cc(CNC2C3CCC(C3)C2c2c[nH]c3ccccc23)cc(CNC2C3CCC(C3)C2c2c[nH]c3ccccc23)c1` (configuration not stated), the GI50 was 1.09 µM and 1.29 µM in the experiment with HOP-92 NSCLC; 1.54 µM in the experiment on COLO 205 colon. The TGI in the experiment with HOP-92 NSCLC was 2.33 µM and 2.63 µM; in the experiment with RPMI-8226 leukemia, greater than 100 µM; in the experiment with CCRF-CEM leukemia it was greater than 100 µM; in the experiment on IGROV1 ovarian, 2.69 µM; with HS 578T breast, 3.32 µM; in the experiment on EKVX NSCLC it was 3.34 µM. The TGI in the experiment with U251 CNS was determined as 1.32 µM; with COLO 205 colon it was 3.03 µM.

In the case of `CCCCCCN(CCCCCC)CC(O)c1ccc2c3c(cccc13)CC2` (configuration not stated), the GI50 in the experiment with HOP-92 NSCLC is 2.16 µM; in the experiment on RPMI-8226 leukemia, 3.02 µM; in the experiment with LOX IMVI melanoma, 3.42 µM; in the experiment on A498 renal, 2.31 µM; in the experiment on HS 578T breast it was 10.8 µM; in the experiment on EKVX NSCLC, 6.64 µM. In addition, the GI50 in the experiment with U251 CNS was 7.44 µM; in the experiment on COLO 205 colon, 5.56 µM. Also, the TGI with HOP-92 NSCLC came to 9.27 µM; in the experiment with RPMI-8226 leukemia it was 9.83 µM; in the experiment with LOX IMVI melanoma, 14.6 µM; with A498 renal, 12 µM; in the experiment on HS 578T breast it was 27.2 µM; with EKVX NSCLC it was 23.1 µM. Also, the TGI turned out to be 22.4 µM with U251 CNS and 19.8 µM in the experiment on COLO 205 colon.

Values taken from PubChem BioAssay (NCI).
